Results as given in ChEMBL document CHEMBL5338706, “Discovery of a potent and selective proteolysis targeting chimera (PROTAC) degrader of NSD3 histone methyltransferase” (Eur J Med Chem, 2022).
Activity calls are given as the source filed them. The rule behind the calls is not given here.

Tests used:
[1] = Downregulation of CDC25A level in human NCI-H1703 cells at 3 uM by measuring fold change by Western blot analysis relative to control; type: functional
NCI-H520 [2] = assay: Induction of apoptosis in human NCI-H520 cells assessed as decrease in Bcl-XL protein expression at 5 uM by measuring fold change by Western blot analysis relative to control; type: functional
NCI-H1703 [3] = assay: Induction of apoptosis in human NCI-H1703 cells assessed as decrease in NSD3 protein expression at 10 uM by measuring fold change by Western blot analysis relative to control; type: functional
[4] = target: T1, Histone-lysine N-methyltransferase NSD3 (Homo sapiens) (UniProt Q9BZ95); assay: Induction of NSD3 degradation in human NCI-H1703 cells measured upto 72 hrs by Western blot analysis; type: cell-based; conditions: dose 0.001-10 µM
T1 sequence (whole entry): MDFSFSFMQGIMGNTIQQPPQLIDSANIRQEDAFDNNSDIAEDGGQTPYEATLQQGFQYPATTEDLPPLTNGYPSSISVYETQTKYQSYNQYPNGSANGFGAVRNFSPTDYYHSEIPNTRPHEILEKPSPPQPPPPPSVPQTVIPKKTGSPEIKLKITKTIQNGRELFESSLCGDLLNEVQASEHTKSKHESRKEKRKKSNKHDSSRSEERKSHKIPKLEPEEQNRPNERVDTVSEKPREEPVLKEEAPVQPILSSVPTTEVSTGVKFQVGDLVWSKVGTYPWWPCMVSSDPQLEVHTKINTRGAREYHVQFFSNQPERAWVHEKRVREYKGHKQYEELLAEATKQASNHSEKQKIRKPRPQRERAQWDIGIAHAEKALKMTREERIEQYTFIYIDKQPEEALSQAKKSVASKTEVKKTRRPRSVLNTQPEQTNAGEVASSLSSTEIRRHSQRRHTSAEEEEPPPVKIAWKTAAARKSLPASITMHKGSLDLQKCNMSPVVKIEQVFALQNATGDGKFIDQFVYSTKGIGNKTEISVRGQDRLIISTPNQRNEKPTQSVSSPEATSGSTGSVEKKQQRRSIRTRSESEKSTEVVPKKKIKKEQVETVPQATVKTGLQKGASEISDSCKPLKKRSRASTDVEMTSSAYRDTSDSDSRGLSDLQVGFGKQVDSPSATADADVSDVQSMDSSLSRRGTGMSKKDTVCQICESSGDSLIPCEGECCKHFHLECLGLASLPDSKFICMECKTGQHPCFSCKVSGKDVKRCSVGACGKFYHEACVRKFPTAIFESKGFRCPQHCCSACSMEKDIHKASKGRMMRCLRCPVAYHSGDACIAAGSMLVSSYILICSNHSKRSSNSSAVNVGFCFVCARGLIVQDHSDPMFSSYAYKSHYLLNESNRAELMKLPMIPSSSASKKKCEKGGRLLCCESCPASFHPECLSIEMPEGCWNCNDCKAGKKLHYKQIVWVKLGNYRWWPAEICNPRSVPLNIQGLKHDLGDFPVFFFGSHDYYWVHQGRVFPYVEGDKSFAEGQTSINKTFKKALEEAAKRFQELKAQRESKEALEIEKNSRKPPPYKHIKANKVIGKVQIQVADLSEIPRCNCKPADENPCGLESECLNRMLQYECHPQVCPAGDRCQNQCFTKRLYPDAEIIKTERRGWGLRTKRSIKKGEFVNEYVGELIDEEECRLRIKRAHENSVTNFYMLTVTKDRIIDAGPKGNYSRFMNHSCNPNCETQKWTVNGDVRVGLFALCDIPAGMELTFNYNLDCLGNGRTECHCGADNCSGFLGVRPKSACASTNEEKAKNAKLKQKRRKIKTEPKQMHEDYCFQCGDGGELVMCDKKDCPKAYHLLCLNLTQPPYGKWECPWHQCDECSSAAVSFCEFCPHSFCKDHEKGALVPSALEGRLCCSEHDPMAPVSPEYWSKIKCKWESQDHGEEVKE

NCI-H1703 [5] = assay: Induction of apoptosis in human NCI-H1703 cells assessed as decrease in MCL-1 protein expression at […] by measuring fold change by Western blot analysis relative to control; type: functional; conditions: dose 7.5 µM
[6] = target: T2, Histone-lysine N-methyltransferase NSD3 (Homo sapiens, UniProt Q9BZ95); assay: (§1) Induction of NSD3 degradation in human NCI-H1703 cells incubated for 72 hrs by Western blot analysis; type: cell-based
T2 sequence (Q9BZ95 whole entry): T1 sequence (whole entry)

[7] = target: T1, Histone-lysine N-methyltransferase NSD3 (Homo sapiens); assay: as §1; type: cell-based; conditions: dose 0.001-5 µM
NCI-H1703 [8] = assay: Induction of apoptosis in human NCI-H1703 cells assessed as decrease in MCL-1 protein expression at 10 uM by measuring fold change by Western blot analysis relative to control; type: functional
NCI-H1703 [9] = assay: Downregulation of IGFBP3 in human NCI-H1703 cells at […] measured after 72 hrs by RNA sequencing assay; type: functional, cell-based; conditions: dose 7.5 µM
NCI-H520 [10] = assay: Induction of apoptosis in human NCI-H520 cells assessed as decrease in Bcl-XL protein expression at 5 to 10 uM by Western blot analysis; type: functional, cell-based; conditions: dose 5-10 µM

Compound: Cc1cc(CNCCCCCCCCCCC(=O)N[C@H](C(=O)N2C[C@H](O)C[C@H]2C(=O)N[C@@H](C)c2ccc(-c3scnc3C)cc2)C(C)(C)C)cc(C)c1-c1ncn(C)c1-c1ccnc2cc(F)ccc12
- fold change (FC) [1]: 0.81
- fold change (FC) (NCI-H520 [2]): 1.1
- fold change (FC) (NCI-H1703 [3]): 0.63
- Activity [4]: Dose-Dependent Effect
- fold change (FC) (NCI-H1703 [5]): 0.54
- EC50 [6]: 1430 nM
- Activity [7]: Dose-Dependent Effect
- fold change (FC) (NCI-H1703 [8]): 0.53
- Activity (NCI-H1703 [9]): Active
- Activity (NCI-H520 [10]): Active
